The values that follow come from EP0533724B1, “CALCIUM CITRATE MALATE COMPOSITION” (THE PROCTER & GAMBLE COMPANY, priority 1990, dated 1991).

A short description of this series: physchem. The conditions noted are these: water. From the text: The exact method for determining this is described hereinafter.

Molecule `O=C(O)CC(O)C(=O)O` (stereo not shown) [calcium malate] yielded a solubility at 0.5 h of 660 mg/mL.

Usually solubility stands for the concentration that dissolves in the medium under given conditions.
